Reference: patent US20230227474A1, “COMPOSITIONS AND METHODS FOR CORRECTION OF ABERRANT SPLICING” (SKYHAWK THERAPEUTICS, INC., priority 2019, published 2023)
Like-named read-outs stand apart in the source and are kept apart here.

Legend:
SMN protein = assay: SMN Protein Assay (MSD); assay type: cell-based, human; conditions: SMA patient fibroblasts (GM03813), 48 hours, read-out: SMN2 Potency- Protein: Protein FL EC50 (average)
Method: Compounds are tested on spinal muscular atrophy (SMA) patient fibroblasts (GM03813, Coriell) at doses ranging from 2.5 μM to 0.6 nM. 7000 cells/well are seeded in 96-well plates. Compounds are incubated for 48 hours and the cells are lysed with 100 μL of lysis buffer. 20 μL of lysate is used for SMN protein measurement by Mesoscale Discovery (MSD) assay developed by PharmOptima (Michigan). A standard curve prepared with SMN protein ranging from […] is used in each MSD plate to calculate the absolute SMN protein amount in each sample.

mHTT protein = assay: mHTT Protein Assay (2B7-MW1, MSD); assay type: cell-based, human; conditions: GM04724 (CAG 70/20) Huntington's disease patient lymphoblast cells, 48 hours, read-out: HTT Potency - Protein: EC50 mHTT (average)
Method: Compounds are tested on GM04724 (CAG 70/20) Huntington's disease patient lymphoblast cells at doses ranging from 10 μM to 0.6 nM. 4,500 cells/well are seeded in 384 well plates. One plate replica is carried out for parallel viability testing by CellTiter Glo (CTG). Compounds are incubated for 48 hours. mHTT protein levels are assessed by the 2B7-MW1 assay via Mesoscale Discovery (MSD) as previously reported (Macdonald et al., 2014). The antibody pair is comprised of previously characterized monoclonals (2B7 and MW1) interrogating two regions for HTT conformation and biological properties: the N17 domain and the polyQ domain (Baldo et al., 2012; Ko et., 2001). 2B7-MW1 is dependent on subject/animal specific levels of HTT at the time of treatment. 2B7-MW1 is dependent on polyQ expansion (e.g., the higher the expansion the higher the signal) and on mHTT size (e.g., a similar polyQ will give higher signal with smaller HTT size). The viability readout is carried out by CTG according to the manufacturer's instructions. The results are show in Table B-5.

SMN2 = assay: Quantitative Splicing Assay (SMN); assay type: cell-based; conditions: Homo sapiens, Fibroblast, SMA patient fibroblasts (GM03813), 24 h
Method: Spinal muscular atrophy (SMA) patient fibroblasts (GM03813, Coriell) are plated in 96-well plates at 50,000 cells/well. Immediately after plating, cells are dosed with compounds for 24 h at concentrations ranging from 2.5 μM to 0.6 nM (0.1% DMSO). Treated cells are lysed and cDNA synthesized using the Fast Advanced Cells-to-Ct kit (Thermofisher A35378) according to the manufacturer's instructions. 2 μL of each cDNA are used in qPCR reactions. The qPCR reactions are prepared in 384-well plates in 10 μL volume, using TaqMan™ Fast Advanced Master Mix (ThermoFisher; 4444965) with primers and probes shown in the table below. Reactions are run in a Quant Studio 6 qPCR instrument with default settings.

[1] = system: Huntingtin (HTT) transcripts; assay: Quantitative Splicing Assay (HTT); assay type: cell-based; conditions: Homo sapiens, GM04724 (CAG 70/20) Huntington's disease patient lymphoblasts, 24 h
Method: GM04724 (CAG 70/20) Huntington's disease patient lymphoblasts (Coriell) are plated in 96-well v-bottom plates at 50,000 cells/well. Immediately after plating, cells are dosed with compound for 24 h at concentrations ranging from 2.5 uM to 0.15 nM (0.1% DMSO). Treated cells are lysed and cDNA synthesized using the Fast Advanced Cells-to-Ct kit (Thermofisher A35378) according to the manufacturer's instructions. 2 uL of each cDNA are used in qPCR reactions to confirm the compound-induced inclusion of a cryptic exon within intron 49 of the Huntingtin (HTT) transcripts. The qPCR reactions are prepared in 384-well plates in 10 uL volume, using TaqMan™ Fast Advanced Master Mix [ThermoFisher; 4444965] with primers and probes shown in the table below. Reactions are run in a Quant Studio 6 qPCR instrument with default settings.

For `Oc1cc(-c2cn[nH]c2)ccc1-c1cc2c(nn1)N([C@@H]1C[C@H]3CC[C@@H](C1)N3)CCO2` [Compound 1, 2-(8-((1R,3s,5S)-8-azabicyclo[3.2.1]octan-3-yl)-7,8-dihydro-6H-pyridazino[4,3-b][1,4]oxazin-3-yl)-5-(1H-pyrazol-4-yl)phenol], the EC50 (SMN protein) was 501 to 10000 nM and the EC50 (mHTT protein) was 501 to 10000 nM.

Compound `Cn1cc(-c2ccc(-c3cc4c(nn3)N([C@@H]3C[C@H]5CC[C@@H](C3)N5)CCC4)c(O)c2)cn1` [Compound 2, 2-(8-((1R,3s,5S)-8-azabicyclo[3.2.1]octan-3-yl)-5,6,7,8-tetrahydropyrido[2,3-c]pyridazin-3-yl)-5-(1-methyl-1H-pyrazol-4-yl)phenol] has an EC50 (SMN protein) of 0.01 to 15 nM, an EC50 (mHTT protein) of 0.01 to 15 nM and an EC50 (SMN2; qPCR SMN FL, read-out: SMN2 Potency- Splicing: Splicing FL EC50 (average)) of 16 to 50 nM. For the same compound, the IC50 (SMN2; qPCR SMN Δ7, read-out: SMN2 Potency- Splicing: Splicing D7 IC50 (average)) was 0.01 to 15 nM, the EC50 ([1]; qPCR HTTcryp49b (cryptic exon within intron 49), read-out: HTT Potency - Splicing: E49b EC50 (average)) was 0.01 to 15 nM and the EC50 ([1]; qPCR HTTex49_50, read-out: HTT Potency - Splicing: E49-50 EC50 (average)) was 0.01 to 15 nM.

In the case of `Oc1cc(-n2ccnc2)ccc1-c1cc2c(nn1)N([C@@H]1C[C@H]3CC[C@@H](C1)N3)CCO2` [Compound 3, 2-(8-((1R,3s,5S)-8-azabicyclo[3.2.1]octan-3-yl)-7,8-dihydro-6H-pyridazino[4,3-b][1,4]oxazin-3-yl)-5-(1H-imidazol-1-yl)phenol], the EC50 (SMN protein) is reported as 501 to 10000 nM and the EC50 (mHTT protein) is reported as 501 to 10000 nM.
